Earlier results on 2 molecules are cited in patent US5855881A, “Mammalian alcohol dehydrogenase and aldehyde dehydrogenase production in plants” (priority 1996, dated 1999).

For series [1], the target named is T1, human cytosolic ALDH1 (aldehyde dehydrogenase) (Homo sapiens, UniProt P00352).
T1 construct: at least five ALDHs that have been purified and characterized from human liver or stomach; host or cells: purified from human liver or stomach (Yin et al. 1993)
T1 sequence (P00352 1-501): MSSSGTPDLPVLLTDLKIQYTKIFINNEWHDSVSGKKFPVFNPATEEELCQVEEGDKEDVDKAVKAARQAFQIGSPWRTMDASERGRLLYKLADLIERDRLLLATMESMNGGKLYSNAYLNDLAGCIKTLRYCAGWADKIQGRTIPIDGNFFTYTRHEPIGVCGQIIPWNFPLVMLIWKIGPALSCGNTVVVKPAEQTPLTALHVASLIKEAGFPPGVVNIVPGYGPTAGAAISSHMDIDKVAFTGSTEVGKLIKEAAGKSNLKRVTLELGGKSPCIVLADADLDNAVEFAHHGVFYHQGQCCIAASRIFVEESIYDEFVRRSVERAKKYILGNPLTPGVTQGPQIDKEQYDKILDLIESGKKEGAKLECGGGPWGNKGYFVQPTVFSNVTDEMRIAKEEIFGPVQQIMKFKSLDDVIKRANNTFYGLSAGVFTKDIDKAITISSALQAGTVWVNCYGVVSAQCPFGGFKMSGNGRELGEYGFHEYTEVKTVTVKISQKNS
The settings on record: read-out: Km toward acetaldehyde.

The target of series [2] is T2, human γ-aminobutyraldehyde dehydrogenase (GABALDH) (Homo sapiens, UniProt P49189).
T2 construct: γ-aminobutyraldehyde dehydrogenase has been purified from liver; host or cells: purified from human liver (Yin et al. 1993)
T2 sequence (P49189 whole entry): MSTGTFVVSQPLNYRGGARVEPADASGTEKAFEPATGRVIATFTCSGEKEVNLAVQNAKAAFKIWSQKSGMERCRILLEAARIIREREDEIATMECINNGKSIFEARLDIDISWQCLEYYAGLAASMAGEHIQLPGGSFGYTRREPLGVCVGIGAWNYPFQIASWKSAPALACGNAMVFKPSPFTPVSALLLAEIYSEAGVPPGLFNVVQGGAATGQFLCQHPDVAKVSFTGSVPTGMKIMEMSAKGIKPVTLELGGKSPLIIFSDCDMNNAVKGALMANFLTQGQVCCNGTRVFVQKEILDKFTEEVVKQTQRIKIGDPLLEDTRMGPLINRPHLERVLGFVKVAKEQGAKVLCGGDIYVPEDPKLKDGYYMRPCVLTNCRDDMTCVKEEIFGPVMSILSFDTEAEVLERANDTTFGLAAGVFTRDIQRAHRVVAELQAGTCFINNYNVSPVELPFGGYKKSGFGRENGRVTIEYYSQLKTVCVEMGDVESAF
The settings on record: read-out: Km toward acetaldehyde.

Series [3] has as its target T3, human ALDH4 (glutamic γ semialdehyde dehydrogenase, GSDH) (Homo sapiens, UniProt P30038).
T3 construct: at least five ALDHs that have been purified and characterized from human liver or stomach; host or cells: purified from human liver or stomach (Yin et al. 1993)
T3 sequence (P30038 25-563): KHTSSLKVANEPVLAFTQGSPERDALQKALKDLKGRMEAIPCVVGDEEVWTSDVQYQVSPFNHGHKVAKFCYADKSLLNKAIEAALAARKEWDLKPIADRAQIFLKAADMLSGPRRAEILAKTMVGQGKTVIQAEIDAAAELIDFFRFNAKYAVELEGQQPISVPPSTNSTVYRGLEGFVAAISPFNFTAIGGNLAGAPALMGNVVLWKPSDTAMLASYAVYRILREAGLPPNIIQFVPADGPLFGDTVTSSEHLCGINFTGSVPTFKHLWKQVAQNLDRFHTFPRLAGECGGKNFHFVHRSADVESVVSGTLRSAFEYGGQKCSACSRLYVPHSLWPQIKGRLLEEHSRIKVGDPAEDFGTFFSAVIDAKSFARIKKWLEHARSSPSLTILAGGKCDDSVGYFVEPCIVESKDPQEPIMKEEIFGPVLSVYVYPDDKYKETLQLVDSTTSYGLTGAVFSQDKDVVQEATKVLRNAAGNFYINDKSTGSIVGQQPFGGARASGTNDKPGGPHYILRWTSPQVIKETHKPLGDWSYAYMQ
The following applies: read-out: Km toward acetaldehyde.

For series [4], the target named is T4, human mitochondrial ALDH2 (aldehyde dehydrogenase) (Homo sapiens, UniProt P05091).
T4 construct: at least five ALDHs that have been purified and characterized from human liver or stomach; host or cells: purified from human liver or stomach (Yin et al. 1993)
T4 sequence (P05091 18-517): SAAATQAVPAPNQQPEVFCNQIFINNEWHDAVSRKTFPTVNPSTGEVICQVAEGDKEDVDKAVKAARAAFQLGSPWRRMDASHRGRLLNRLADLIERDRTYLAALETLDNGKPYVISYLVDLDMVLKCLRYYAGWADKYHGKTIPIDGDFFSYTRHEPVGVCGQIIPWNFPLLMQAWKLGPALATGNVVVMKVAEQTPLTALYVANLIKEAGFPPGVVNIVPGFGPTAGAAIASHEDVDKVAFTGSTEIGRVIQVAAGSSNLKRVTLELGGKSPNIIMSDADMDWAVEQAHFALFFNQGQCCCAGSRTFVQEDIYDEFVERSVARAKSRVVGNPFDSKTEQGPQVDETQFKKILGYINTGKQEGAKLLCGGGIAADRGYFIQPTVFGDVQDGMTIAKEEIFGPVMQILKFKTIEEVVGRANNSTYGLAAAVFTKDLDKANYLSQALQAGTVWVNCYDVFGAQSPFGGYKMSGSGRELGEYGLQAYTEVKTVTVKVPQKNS
The settings on record: read-out: Km toward acetaldehyde.

Series [5] has as its target T5, human ALDH3 (aldehyde dehydrogenase) (Homo sapiens, UniProt P30838).
T5 construct: at least five ALDHs that have been purified and characterized from human liver or stomach; host or cells: purified from human liver or stomach (Yin et al. 1993)
T5 sequence (P30838 1-453): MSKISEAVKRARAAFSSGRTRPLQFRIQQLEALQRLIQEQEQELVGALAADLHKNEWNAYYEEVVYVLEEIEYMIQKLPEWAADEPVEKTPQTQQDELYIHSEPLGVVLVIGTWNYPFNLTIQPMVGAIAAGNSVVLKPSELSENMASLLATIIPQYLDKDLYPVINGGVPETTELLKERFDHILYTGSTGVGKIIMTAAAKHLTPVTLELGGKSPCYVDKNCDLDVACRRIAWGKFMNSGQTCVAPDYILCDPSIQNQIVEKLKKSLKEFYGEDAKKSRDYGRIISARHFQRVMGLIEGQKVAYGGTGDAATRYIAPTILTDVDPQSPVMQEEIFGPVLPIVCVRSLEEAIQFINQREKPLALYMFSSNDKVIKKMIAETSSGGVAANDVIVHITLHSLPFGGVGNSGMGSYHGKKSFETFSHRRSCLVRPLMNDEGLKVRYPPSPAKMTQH
The settings on record: read-out: Km toward acetaldehyde.

Series [6] concerns the target human class IV σ-ADH (stomach alcohol dehydrogenase) (Homo sapiens, UniProt P40394).

Chain of human class IV σ-ADH (stomach alcohol dehydrogenase) (P40394 14-386 limits assumed): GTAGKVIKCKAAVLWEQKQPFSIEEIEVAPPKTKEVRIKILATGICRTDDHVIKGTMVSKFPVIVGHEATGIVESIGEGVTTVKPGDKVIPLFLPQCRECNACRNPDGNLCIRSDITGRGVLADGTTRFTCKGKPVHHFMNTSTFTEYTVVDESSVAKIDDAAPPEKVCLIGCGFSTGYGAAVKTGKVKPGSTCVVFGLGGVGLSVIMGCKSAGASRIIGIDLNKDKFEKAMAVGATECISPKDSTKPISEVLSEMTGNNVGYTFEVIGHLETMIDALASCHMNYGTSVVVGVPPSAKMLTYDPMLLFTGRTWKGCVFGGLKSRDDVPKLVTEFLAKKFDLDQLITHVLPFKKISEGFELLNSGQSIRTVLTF

As usually defined, the Km is the concentration of substrate that gives half-maximal velocity. As for `CC=O` [acetaldehyde], the Km in series [1] was 30 µM; in series [2], 50 µM; in series [3], 5000 µM; in series [4], 3 µM; in series [5], 83000 µM.

`CCO` [ethanol]: in series [6] (enzyme isolated from human stomach tissue), the “kcat for ethanol oxidation” value was 16.67 to 25 s⁻¹. In series [6] (pH 7.5), the “kcat value for ethanol” value was “about 1000”. For the same molecule, the Michaelis-Menten constant (Km) in series [6] (read-out: Km for ethanol, enzyme isolated from human stomach tissue) is roughly 41000 µM.
